Broadly, the pIC50 is the IC50 on a negative log10 scale, so that one unit is a factor of ten.

pIC50: −log10 of the molar value. Counter-ions that a name gives are not always drawn.

The subject of test [1] is production of NO in macrophages from mouse peritoneal cavity. In words: production of NO in macrophages from mouse peritoneal cavity (LPS and PAF). It is filed as cell-based. The note with it: Macrophage, costimulated by LPS (1×10^−9 mol·L^−1) and PAF (1×10^−6 mol·L^−1), 24 hr, read-out: IC50, inhibition of the production of NO. The protocol: 4% of sodium mercaptoethanol was injected into C57BL/6 mouse peritoneal cavity to induce macrophages. The cells in peritoneal cavity were collected after injection for 3-4 days. 500 μl of cells were inoculated in the well of 24 wells plate which was placed in the CO2 incubator at 37° C. for 2.5 hr to make the cells adherent. The cells were rinsed by 1640 culture media. 495 μl of 1640 media containing irritant and 5 μl the compound or solvent were added into each well. The plate was incubated for 24 hr. The supernatant was taken out and mixed with the same volume of Griess agent. The reaction fluid was kept at room temperature for 10 min and the optical density was measured at 550 nm. The numbers read was transferred into the content of NO.

The test system of test [2] is production of TNF-α by macrophages from mouse peritoneal cavity. Nature of the test: production of TNF-α by macrophages from mouse peritoneal cavity (LPS, L929 bioassay). The settings on record: Macrophage, LPS 10 μg·ml^−1, 24 hr, read-out: IC50, inhibition of the production of TNF-α. It is filed as cell-based. Here is the method: The macrophages from mouse peritoneal cavity were prepared as described before. 500 μl of cells were inoculated in 48-well plate which was incubated with 5% CO2 at 37° C. for 2.5 hr. The compounds and LPS (final concentration: 10 μg·ml^−1) were added into each well of the plate. After incubating for 24 hr the supernatant was collected. The content of TNF-α was determined by following method. 100 μl of L929 cells (2×10^5cells·ml^−1) with 100 μl of RPMI-1640 or supernatant collected above were inoculated into 96-well plate which incubated under 5% CO2 at 37° C. for 20 hr. The supernatant was discarded. 200 μl of 0.5% crystal violet was added into each well. 10 min later crystal violet outside of the cells was rinsed using normal saline. The cells were dried under room temperature. 100 μl of 10% SDS was added into each well. After the cells were lysed completely the optical density was measured at 570 nm. The well of 1640 media was as the control, The content of TNF-a was evaluated by the percentage of L929 cells survival.

For test [3], the system named is cutaneous vascular permeability in mice induced by PAF. In words: increase of cutaneous vascular permeability in mice induced by PAF. The test is classed as in vivo, mouse. The settings on record: orally, 50 mg·kg^−1, Kunming mice. Here is the method: Kunming mice (male, 18-22 g) were randomly divided into two groups (treatment and control) with 10 animals for each group. The animals were orally administrated with the compounds or solvent, respectively. 1 hr later, 0.25 ml of 1% evans blue dye was injected into the tail vein. After 10 min, 0.1 ml of PAF (1×10^−8 mol·L^−1) was intracutaneously injected into the dorsal skin shaved. 1 hr later, the animals were sacrificed by cervical vertebra displacement. The skin with blue spot was cut off. The evans blue dye was extracted by 0.8 ml of mixed solution of acetone and normal saline (7:3). The supernatant was transferred into the 96-well plate. The optical density was measured at 620 nm.

Test [4] concerns adjuvant arthritis in rat. Nature of the test: adjuvant arthritis in rat (therapeutic effect). The test is classed as in vivo. The settings on record: orally 100 mg·kg^−1 during 19-25th day, SD rats. Here is the method:
SD rats (male, 190±10 g) were randomly divided into two groups (treatment and control) with 10 animals for each group. At 0 day 0.1 ml of Freund's complete adjuvant was intracutaneously injected into the right posterior foot. For therapeutic experiment the animals were orally administrated with the compound or solvent during 19-25th day. The perimeter of two ankle joint was measured and the inflammation of anterior foot, ear and tail were judged by scoring for every 3 days until 28 th day.

For test [5], the system named is rat arthritis induced by type II collagen. Nature of the test: rat arthritis induced by type II collagen. The test is classed as in vivo. The note with it: 100 mg · kg^−1 × 13 d, orally, Wistar rat. Here is the method:
(§1) 0.1 ml of type II H collagen (2 mg·ml^−1) was intracutaneously injected into the hind foot of Wistar rat (male, 100±10 g) (d0). Seven days later 0.1 ml of type II collagen was intracutaneously injected into the root of tail. At 19th day (d19) the animals inflamed were selected to supply the experiment and randomly divided into two groups. […] The perimeter of the ankle joint of two hind feet, weight of body was measured and the systemic inflammation (including the toes of front and hind feet, ears and tails) was judged by scoring every 3 days. At 41th day 40 μl of 0.2% type II collagen was intracutaneously injected into the right ear. Twenty-four hr later the edema level was evaluated by weighing the ponderance of ear piece (diameter: 8 mm). At 42th day the blood was collected by decapitating. The serum was separated by centrifugating. The contents of antibody for anti-type II collagen, cytokine TNF-α, IL-1β in serum were determined by ELISA kit.

Test [6] concerns delayed hypersensitivity in rats. Nature of the test: delayed hypersensitivity in rats (type II collagen ear challenge). The note with it: Dose 100 mg · kg^−1 × 13 d, orally. The test is classed as in vivo, rat. Here is the method:
as §1

The test system of the next test is TNF-α in serum. In words: TNF-α in serum of rat with arthritis induced by type II collagen (ELISA). The note with it: Dose 100 mg · kg^−1 × 13 d, orally. The test is classed as in vivo. The protocol:
as §1
(ELISA stands for enzyme-linked immunosorbent assay.)

The test system of another test is IL-1β in serum. In words: IL-1β in serum of rat with arthritis induced by type II collagen (ELISA). The test is classed as in vivo. The settings on record: Dose 100 mg · kg^−1 × 13 d, orally. The protocol:
as §1, with “At 19th day (d19) the animals inflamed were selected to supply the experiment and randomly divided into two groups.” left out

For the next test, the system named is IgG in serum. In words: IgG (antibody for anti-type II collagen) in serum of rat with arthritis induced by type II collagen. The note with it: Dose 100 mg · kg^−1 × 13 d, orally. It is filed as in vivo. Here is the method: as §1

Consider `CCOC(=O)C1CCN(CCC(=O)/C=C/c2ccc(Cl)cc2)CC1` [Compound 3, 5-[(4-Ethoxycarbonyl)piperidyl]-1-(4-chlorophenyl)-1-penten-3-one hydrochloride], for which the pIC50 in test [1] is 6.65; in test [2], 7.47. The “Inhibition (%) of increase of cutaneous vascular permeability” value in test [3] is listed as 53.23%. In addition, the “Inhibition (%) of adjuvant arthritis” value in test [4] (21th day) is 31.9%; in test [4] (23th day), 49.3%; in test [4] (25th day), 54.5%; in [4] (27th day), 59.3%. Also, the “Inhibition (%) Score for systemic inflammation” value in test [5] worked out at 52.6%. Besides, in [5], the “Inhibition (%) Swelling of left ankle joint” value is reported as 67.5%. Besides, in [5], the “Inhibition (%) Swelling of right ankle joint” value was 68.8%. Besides, the “Inhibition (%) of delayed hypersensitivity” value in test [6] is recorded as 21.2%. In addition, in the test with TNF-α in serum, the “inhibition (%) of production of TNF-α in serum” value is reported as 49.3%. The “Inhibition (%) of production of IL-1β in serum” value in the test on IL-1β in serum stood at 45.7%. In addition, the “Inhibition (%) of production of IgG in serum” value with IgG in serum was 38.4%.

The record behind these values is patent US8524744B2, “Arylamine ketones, their preparation methods, the pharmaceutical composition containing them and their use” (Institute of Mataria Medica, Chinese Academy of Medical …, priority 2004, dated 2013).
